Patent publication US20240285670A1, “THERAPEUTIC TREATMENT OF TUMORS BY BLOCKING THE HEME SYNTHESIS-EXPORT AXIS” (Università degli Studi di Torino, priority 2021, published 2024)

Legend:
[1] = system: SKCO1 cells; assay: SKCO1 cells viability (CellTiter-Fluor) as readout of proliferation; type: cell-based, human; settings: 5 mM ALA at day 0, no medium refresh
Experimental: (A) Heme content in SHSY5Y cells non-treated (NT) or treated with 5 mM ALA for 15 hours. Values are expressed as pmol heme/mg protein. Data represent mean±SEM, n=3; *=P<0.05. (B, C) qRT-PCR analysis of the expression of ALAS1 (B) and FLVCR1a (C) in SHSY5Y cells non-treated (NT) or treated with 5 mM ALA for 15 hours. Transcript abundance, normalized to beta-actin mRNA expression, is expressed as a fold increase over a calibrator sample. Data represent mean±SEM, n=4. For statistical analyses, an unpaired Student's t-test was used; *p<0.05. (D) qRT-PCR analysis of the expression of ALAS1 in SKCO1 cells untreated (NT) or treated with 5 mM ALA for 24 hours. Transcript abundance, normalized to beta-actin mRNA expression, is expressed as a fold increase over a calibrator sample. Data represent mean±SEM, n=5. […] Band intensities were measured by densitometry and normalized to beta-actin expression. […] (F) Proliferation of SHSY5Y cells assessed by crystal violet staining at different time points (starting from the day after plating, named “day 0”). Treatment with 5 mM ALA occurred at “day 0” and cells were monitored until the end of the experiment without medium refresh. […] (G) SKCO1 cells viability measured by the CellTiter-Fluor Cell Viability Assay (Promega, Madison, WI USA, catalog n°G6080) at different time points, starting from the day after plating (named “day 0”), as a readout of cell proliferation. […]

[2] = system: Caco2 cells; assay: Flow cytometric analysis of apoptosis in Caco2 cells; type: cell-based, human; settings: FLVCR1a-silenced vs scramble shRNA, synchronized Caco2 cells
From the text: (A) Proliferation of Caco2 cells assessed by crystal violet staining at the indicated days; bar=1000 μm. […] Staining quantification is reported in the bar graph as percentage of crystal violet stained area. Data represent mean±SEM, n=4. For statistical analyses, a two-way analysis of variance was used, followed by the Bonferroni correction for multiple group comparisons; *=p<0.05, ***=p<0.001. (B) Caco2 cells viability the day of plating (day 0) and three days after plaiting (day 3). The measure is considered a readout of cell proliferation. […] Data represent mean±SEM, n=3 wells. For statistical analyses, a two-way analysis of variance was used, followed by the Bonferroni correction for multiple group comparisons; *=p<0.05, **=p<0.01. (C, D, E) Representative flow cytometric analyses of apoptosis in synchronized Caco2 (C), SKCO1 (D) and C80 (E) cells. […] Data represent mean±SEM, n=4 wells pooled from two independent experiments. For statistical analyses, an unpaired Student's t-test was used; *=p<0.05, **=p<0.01. […]
Stained cells were analyzed using a FACSCanto II cytofluorimeter and processed with BD FACSDIVA Software v8.1 (BD Biosciences, Milan, IT; http://www.bdbiosciences.com/instruments/software/facsdiva/index.jsp/ RRID:SCR_001456), acquiring at least 10,000 events per sample or 25,000 cells per sample for cell cycle experiments.

Row | Compound | cell proliferation (cell viability) [1] | basal apoptosis [2]
1 | Cl.NCC(=O)CCC(=O)O [5-ALA, 5-Aminolevulinic acid hydrochloride] | Reduced proliferation | –
2 | FLVCR1a shRNA: shRNA specifically down-regulating FLVCR1a without targeting FLVCR1b; pLKO.1 lentiviral clone TRCN0000059599, antisense SEQ ID No.: 2 (antisense TTGCTAATGATGCTGTACTGG; sense CCAGTACAGCATCATTAGCAA) | – | higher extent of basal apoptosis
